From ChEMBL document CHEMBL1201862, “PubChem BioAssay data set” (2004)
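96-well plates; 48 h exposure; 5 concentrations. Endpoints by linear interpolation between flanking doses. Not reached: highest tested concentration assigned. GI50 is the concentration that inhibits growth by half.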 The source made the active and inactive calls. No stated cut-off is given here; in the data, active = GI50 up to about 1.1 µM and inactive = higher.

What was measured:
Assay in all cases: DTP human tumour cell line panel, 48 h
A498 = tested on: A498
DLD-1 = tested on: DLD-1
HT-29 = tested on: HT-29
LOX IMVI = tested on: LOX IMVI
LXFL 529 = tested on: LXFL 529
NCI-H226 = tested on: NCI-H226
OVCAR-3 = tested on: OVCAR-3
OVCAR-8 = tested on: OVCAR-8
RXF 393 = tested on: RXF 393
SF-295 = tested on: SF-295
SK-MEL-2 = tested on: SK-MEL-2
SNB-19 = tested on: SNB-19
SNB-78 = tested on: SNB-78
SW-620 = tested on: SW-620
U-251 = tested on: U-251

Measured: GI50

CC(C)(C)CC(C)(C)c1ccc(OCCOCC[N+](C)(C)Cc2ccccc2)cc1 [BENZETHONIUM CHLORIDE]
inactive: A498 16.6 µM | DLD-1 4.21 µM | HT-29 1.6 µM | LOX IMVI 1.42 µM | LXFL 529 1.32 µM | NCI-H226 5.19 µM | OVCAR-3 1.52 µM | OVCAR-8 3.19 µM | RXF 393 3.11 µM | SF-295 11 µM | SK-MEL-2 2.06 µM | SNB-19 3.1 µM | SNB-78 1.63 µM | SW-620 2.69 µM | U-251 1.54 µM

COC1C2C=CC(C2)[C@H]1[N+](=O)[O-] (stereo not given in full)
inactive: A498 > 100 µM | DLD-1 > 100 µM | HT-29 > 100 µM | LOX IMVI > 100 µM | LXFL 529 > 100 µM | NCI-H226 > 100 µM | OVCAR-3 > 100 µM | OVCAR-8 56.8 µM | RXF 393 > 100 µM | SF-295 > 100 µM | SK-MEL-2 > 100 µM | SNB-19 > 100 µM | SNB-78 > 100 µM | SW-620 95.7 µM | U-251 > 100 µM

CN1CCn2c(Br)ccc2C1=O
inactive: A498 > 100 µM | DLD-1 > 10 µM | HT-29 > 100 µM | LOX IMVI > 100 µM | LXFL 529 > 100 µM | NCI-H226 > 100 µM | OVCAR-3 > 100 µM | OVCAR-8 > 100 µM | RXF 393 > 100 µM | SF-295 > 100 µM | SK-MEL-2 > 100 µM | SNB-19 > 100 µM | SNB-78 > 100 µM | SW-620 > 100 µM | U-251 > 100 µM

O=S1(=O)c2ccccc2N(O)C2=NCCN21
inactive: A498 28.6 µM | DLD-1 > 100 µM | HT-29 > 100 µM | LOX IMVI > 100 µM | LXFL 529 > 100 µM | NCI-H226 25.9 µM | OVCAR-3 > 100 µM | OVCAR-8 > 100 µM | RXF 393 > 100 µM | SF-295 > 100 µM | SK-MEL-2 > 100 µM | SNB-19 > 100 µM | SNB-78 > 100 µM | SW-620 > 100 µM | U-251 > 100 µM

N#CC(C(=O)C(=O)NCCCNC(=O)C(=O)C(C#N)c1ccccc1)c1ccccc1 (stereo not given)
inactive: A498 > 100 µM | DLD-1 > 100 µM | HT-29 > 100 µM | LOX IMVI > 100 µM | LXFL 529 > 100 µM | NCI-H226 > 100 µM | OVCAR-3 > 100 µM | OVCAR-8 > 100 µM | RXF 393 > 100 µM | SF-295 > 100 µM | SK-MEL-2 > 100 µM | SNB-19 5.33 µM | SNB-78 > 100 µM | SW-620 > 100 µM | U-251 > 100 µM

COc1cc(C(N)=O)c(OC)c(OC)c1OC
inactive: A498 > 100 µM | DLD-1 > 100 µM | HT-29 > 100 µM | LOX IMVI > 100 µM | LXFL 529 > 100 µM | NCI-H226 > 100 µM | OVCAR-3 > 100 µM | OVCAR-8 > 100 µM | RXF 393 > 100 µM | SF-295 > 100 µM | SK-MEL-2 > 100 µM | SNB-19 > 100 µM | SNB-78 > 100 µM | SW-620 > 100 µM | U-251 > 100 µM
